Experimental data as given in publication PMC7140498, “Predicting liver cytosol stability of small molecules” (Journal of Cheminformatics, 2020).

Experiment: Metabolic stability assay (substrate depletion) in human liver cytosol fractions
Conditions: both, human, liver cytosol fractions, pH 7.4, t1/2 [min] (Left), external validation, sheet Human, left compound
Experimental: Our assay (384-well format) consisted of two parts; a robotic system for incubation and sample clean up and an integrated LC/MS method to calculate the percent remaining of parent compound. Briefly, each reaction mixture (110 μL) consisted of a test compound (1 μM) and either human or mouse cytosol fractions (2 mg/mL) in phosphate buffer (100 mM) at pH 7.4. Samples were incubated in 384-well plates at 37 °C for 0, 5, 10, 15, 30 and 60 min. Sample analysis and t1/2 calculations were performed using a previously described method [15]. […] A set of control compounds for low and high cytosolic stability were routinely run in each plate.

Compound | half-life at 1 μM
N#Cc1ccc(C(=O)N2CCCOCCNC(=O)CC2)cc1 [N#Cc1ccc(C(=O)N2CCCOCCNC(=O)CC2)cc1] | > 2 h
N#Cc1ccc(CN2CC(Oc3ccc(F)cc3F)C2)cc1 [N#Cc1ccc(CN2CC(Oc3ccc(F)cc3F)C2)cc1] | 1.05 h
O=C(c1ccsc1)N1CCC(Oc2cccc(F)c2)C1 (stereo not shown) [O=C(c1ccsc1)N1CCC(Oc2cccc(F)c2)C1] | 1.38 h

Same assay, conditions: both, human, liver cytosol fractions, pH 7.4, t1/2 [min] (Right), external validation, sheet Human, right compound

half-life at 1 μM | Compound
> 2 h | COc1cccc(CN2CCC3(CC2)OCCN(C)C3=O)c1 [COc1cccc(CN2CCC3(CC2)OCCN(C)C3=O)c1]
0.47 h | COc1cccc(CN2CCOC[C@H](O)C2)c1 [COc1cccc(CN2CCOC[C@H](O)C2)c1]
0.593 h | Cc1cc2cc(-c3c(C)noc3C)nc(Nc3ccccc3)c2o1 [Cc1cc2cc(-c3c(C)noc3C)nc(Nc3ccccc3)c2o1]
0.638 h | O=C(c1cccs1)N1CCC(Oc2ccccc2)C1 (stereo not shown) [O=C(c1cccs1)N1CCC(Oc2ccccc2)C1]
> 2 h | O=C(c1ccoc1)N1CCC(Oc2ccccc2)C1 (stereo not shown) [O=C(c1ccoc1)N1CCC(Oc2ccccc2)C1]

Compound | half-life at 1 μM
COc1ccccc1CN1CCC2(CC1)CC(O)CCO2 (stereo not shown) [COc1ccccc1CN1CCC2(CC1)CC(O)CCO2] | > 2 h

Same assay, conditions: both, human, liver cytosol fractions, pH 7.4, t1/2 [min] (left), in-house library pair, human transforms, left compound

Compound | half-life at 1 μM
N#Cc1ccc(C(=O)N2CCCOCCNC(=O)CC2)cc1 [N#Cc1ccc(C(=O)N2CCCOCCNC(=O)CC2)cc1] | > 2 h
N#Cc1ccc(CN2CC(Oc3ccc(F)cc3F)C2)cc1 [N#Cc1ccc(CN2CC(Oc3ccc(F)cc3F)C2)cc1] | 1.05 h
O=C(c1ccsc1)N1CCC(Oc2cccc(F)c2)C1 (stereo not shown) [O=C(c1ccsc1)N1CCC(Oc2cccc(F)c2)C1] | 1.38 h

Same assay, conditions: external validation, sheet Human, left compound

Compound | t1/2 [min] (Left)
COc1cncc(Nc2ncc(-c3cccc(F)c3)c3c2OCC3)c1 [COc1cncc(Nc2ncc(-c3cccc(F)c3)c3c2OCC3)c1] | 80.3 min
Cc1cc(F)ccc1OC1CN(Cc2ccc(C#N)cc2)C1 [Cc1cc(F)ccc1OC1CN(Cc2ccc(C#N)cc2)C1] | 35.4 min
Cc1cc(OC2CN(Cc3ccc(C#N)cc3)C2)ccc1F [Cc1cc(OC2CN(Cc3ccc(C#N)cc3)C2)ccc1F] | 43.8 min
Cc1ccccc1-c1n[nH]c2ncc(-c3cccc(F)c3)nc12 [Cc1ccccc1-c1n[nH]c2ncc(-c3cccc(F)c3)nc12] | 49 min
Cc1noc(C)c1-c1cc(-c2cccc(F)c2)cn2cncc12 [Cc1noc(C)c1-c1cc(-c2cccc(F)c2)cn2cncc12] | 90 min
Cn1cnc2ccc(Nc3cccc(F)c3)nc2c1=O [Cn1cnc2ccc(Nc3cccc(F)c3)nc2c1=O] | 115.2 min
Fc1cccc(-c2cnc(Nc3cncnc3)c3c2CCO3)c1 [Fc1cccc(-c2cnc(Nc3cncnc3)c3c2CCO3)c1] | 9.6 min
Fc1cccc(-c2noc(-c3nc(-c4ccncc4)no3)n2)c1 [Fc1cccc(-c2noc(-c3nc(-c4ccncc4)no3)n2)c1] | 26.4 min
Fc1cccc(Nc2ncc(-c3cccnc3)c3c2OCC3)c1 [Fc1cccc(Nc2ncc(-c3cccnc3)c3c2OCC3)c1] | 76.6 min
N#Cc1ccc(CN2CC(Oc3ccc(F)c(F)c3)C2)cc1 [N#Cc1ccc(CN2CC(Oc3ccc(F)c(F)c3)C2)cc1] | 71.4 min
N#Cc1ccc(CN2CCC(N3CCNC3=O)CC2)cc1 [N#Cc1ccc(CN2CCC(N3CCNC3=O)CC2)cc1] | 93.2 min
N#Cc1cccc(-c2c(C(=O)NC3CC3)nc3sccn23)c1 [N#Cc1cccc(-c2c(C(=O)NC3CC3)nc3sccn23)c1] | 95.2 min
N#Cc1cccc(CN2CCOC[C@H](O)C2)c1 [N#Cc1cccc(CN2CCOC[C@H](O)C2)c1] | 51.1 min
N#Cc1ccccc1CN1CCC2(CC1)CC(O)CCO2 (stereo not shown) [N#Cc1ccccc1CN1CCC2(CC1)CC(O)CCO2] | 80.3 min
O=C(Nc1cnc(-c2ccccc2)nc1)c1cccc(F)c1 [O=C(Nc1cnc(-c2ccccc2)nc1)c1cccc(F)c1] | 52 min
O=C(c1cccs1)N1CCC(Oc2cccc(F)c2)C1 (stereo not shown) [O=C(c1cccs1)N1CCC(Oc2cccc(F)c2)C1] | 17.4 min
O=C(c1ccoc1)N1CCC(Oc2cccc(F)c2)C1 (stereo not shown) [O=C(c1ccoc1)N1CCC(Oc2cccc(F)c2)C1] | 70.5 min
O=c1c2nc(Nc3cccc(F)c3)ccc2ncn1-c1ccccc1 [O=c1c2nc(Nc3cccc(F)c3)ccc2ncn1-c1ccccc1] | 93.9 min
O=c1c2nc(Nc3cccc(F)c3)ccc2ncn1-c1cccnc1 [O=c1c2nc(Nc3cccc(F)c3)ccc2ncn1-c1cccnc1] | 96.4 min
